Assay results: patent publication US7541463B2, “Sulfur-containing naphthalimide derivatives” (East China University of Science and Technology, priority 2003, dated 2009)
“Also recorded” adds a separate entry of the source.

Columns and labels:
[1] = test system: human lung adenocarcinoma cell A-549; test: Growth inhibition of A-549 cells, SRB protein staining assay; type: cell-based; conditions: read-out: Growth inhibition effect to A-549 cell strain; for inhibition at 100 µM: A549, 10^−4 M; for inhibition at 10 µM: A549, 10^−5 M; for inhibition at 1 µM: A549, 10^−6 M; for inhibition at 0.1 µM: A549, 10^−7 M; for inhibition at 0.01 µM: A549, 10^−8 M
Experimental: (§1) The cell growth inhibition of mice leukemia cell P388 was evaluated by MTT (microculture tetrozolium) assay, while the cell growth inhibition of human lung adenocarcinoma cell A-549 was evaluated by SRB (Sulforhodamine B) protein staining assay.
(§2) The procedure of SRB assay was as follows: appropriate amount of cells in log phase were seeded in 96-well plates according to the growing rate (90 ul/well). After cultured for 24 h, cells were exposed to serial dilutions of drugs in triplicate (10 ul/well). In addition, control wells of normal saline in corresponding concentrations and zeroing wells without cell were set. The cells were incubated in 5% CO2 humidified incubator at 37° C. After 72 h, the medium was removed and cells were fixed with cold 10% trichloric acid (TCA) at 4° C. for 1 h. The plates were washed with distilled water 5 times, and stained in room temperature with 4 mg/ml SRB (Sigma, diluted with 1% glacial acetic acid, 100 ul/well) for 15 minutes after air drying. SRB was then washed with 1% acetic acid 5 times. Plates were dried, followed by adding 150 ul/well Tris solution. Absorbance was measured at […] using a multiwell spectrophotometer. The inhibition effect of the compounds in test (percentage of growth inhibition) was calculated for each well: % inhibition=(A540control cells−A540treated cells)/A540control cells×100%.
(§3) The cell lines used were mice leukemia cell P388, human leukemia cell MOLT-4, human lung adenocarcinoma cell A-549, human gastric adenocarcinoma SGC-7901, human hepatocellular carcinoma BEL-7402 and human embryonal fibroblast WI-38 (commerially available from ATCC).
(§4) The exposure time to compounds was 48 h-72 h.

[2] = test system: human gastric adenocarcinoma SGC-7901; test: Growth inhibition of SGC-7901 cells (MTT or SRB assay); type: cell-based; conditions: read-out: Growth inhibition effect to SGC-7901 cell strain; for inhibition at 100 µM: 10^−4 M; for inhibition at 10 µM: 10^−5 M; for inhibition at 1 µM: 10^−6 M; for inhibition at 0.1 µM: 10^−7 M; for inhibition at 0.01 µM: 10^−8 M
Experimental: (§5) The procedure of MTT assay was as follows: appropriate amount of cells in log phase were seeded in 96-well plates (6000 cells/well, 15000 cells/well, 90ul/well) according to the growing rate. After cultured for 24 h, cells were exposed to serial dilutions of drugs in triplicate (10 ul/well). In addition, wells without cell, and wells without cell but with serial dilutions of drugs in case of using a colored-drug were set for zeroing. Then, the cells were cultured in 5% CO2 humidified incubator at 37° C. for 48 h. After treatment of drugs for 48 h, 20ul MTT (Sigma) which was diluted by normal saline to the concentration of 5 mg/ml was added to each well, 50ul/well 10%SDS-5% isobutanol-0.01% mol/LHCl was added after 4 h. After cultured overnight, absorbance was measured at 570 nm using a multiwell spectrophotometer. The inhibition effect of the compounds in test (percentage of growth inhibition) was calculated for each well: % inhibition=(OD570control cells−OD570treated cells)/OD570control cells×100%.
as §2
(§6) The methods used were MTT assay or SRB assay.
as §3, §4

[3] = test system: human hepatocellular carcinoma BEL-7402; test: Growth inhibition of BEL-7402 cells (MTT or SRB assay); type: cell-based; conditions: read-out: Growth inhibition effect to BEL-7402 cell strain; for inhibition at 100 µM: 10^−4 M; for inhibition at 10 µM: 10^−5 M; for inhibition at 1 µM: 10^−6 M; for inhibition at 0.1 µM: 10^−7 M; for inhibition at 0.01 µM: 10^−8 M
Experimental: as §5, §2, §6, §3, §4

mice leukemia cell P388 = test: Growth inhibition of P388 cells, MTT assay; type: cell-based; conditions: Mus musculus, read-out: Growth inhibition effect to P388 cell strain; for inhibition at 100 µM: 10^−4 M; for inhibition at 10 µM: 10^−5 M; for inhibition at 1 µM: 10^−6 M; for inhibition at 0.1 µM: 10^−7 M; for inhibition at 0.01 µM: 10^−8 M
Experimental: as §1, §5, §3, §4

[4] = test system: human leukemia cell MOLT-4; test: Growth inhibition of MOLT-4 cells (MTT or SRB assay); type: cell-based; conditions: read-out: Growth inhibition effect to MOLT-4 cell strain; for inhibition at 100 µM: 10^−4 M; for inhibition at 10 µM: 10^−5 M; for inhibition at 1 µM: 10^−6 M; for inhibition at 0.1 µM: 10^−7 M; for inhibition at 0.01 µM: 10^−8 M
Experimental: as §5, §2, §6, §3, §4

S-180 sarcoma [5] = test: In vivo tumor growth inhibition, S-180 sarcoma in mice; conditions: 75 mg/kg i.v, injected twice (Day 1 and Day 4)
[6] = Body weight and deaths of S-180 bearing mice; type: in vivo; conditions: 75 mg/kg i.v, injected twice (Day 1 and Day 4)
S-180 sarcoma [7] = test: In vivo tumor growth inhibition, S-180 sarcoma in mice; conditions: i.p. injection
Experimental: S-180 sarcoma developed for 7-11 days and in good growth trend was homogenated into cell suspension. The cell suspension was inoculated subcutaneously into right armpit of female KM mice (18˜22 g) (about 1.0−2.5×10^6 cells/mouse). After 24 h, the mice were grouped in random with compounds administrated by i.p. injection. From the next day on, the mice were given serial dosages. After treatment, animals were killed, and solid tumors were removed and weighed after the body weight were weighed. The inhibition rate was calculated as follows, and T-test was carried out: [(Average tumor weight of NS group−Average tumor weight of test group)/Average tumor weight of NS group]×100%.

| Structure (SMILES) | melting point [°C] | inhibition at 100 µM [1] [%] | inhibition at 10 µM [1] [%] | inhibition at 1 µM [1] [%] | inhibition at 0.1 µM [1] [%] | inhibition at 0.01 µM [1] [%] | inhibition at 100 µM [2] [%] | inhibition at 10 µM [2] [%] | inhibition at 1 µM [2] [%] | inhibition at 0.1 µM [2] [%] | inhibition at 0.01 µM [2] [%] | inhibition at 100 µM [3] [%] | inhibition at 10 µM [3] [%] | inhibition at 1 µM [3] [%] | inhibition at 0.1 µM [3] [%] | inhibition at 100 µM (mice leukemia cell P388) [%] | inhibition at 10 µM (mice leukemia cell P388) [%] | inhibition at 1 µM (mice leukemia cell P388) [%] | inhibition at 0.1 µM (mice leukemia cell P388) [%] | inhibition at 0.01 µM (mice leukemia cell P388) [%] | further results |
| --- | --- | --- | --- | --- | --- | --- | --- | --- | --- | --- | --- | --- | --- | --- | --- | --- | --- | --- | --- | --- | --- |
| O=c1[nH]cc(F)c(=O)[nH]1 [5-FU] | – | – | – | – | – | – | – | – | – | – | – | – | – | – | – | – | – | – | – | – | Tumor growth inhibition % (S-180 sarcoma [5]): 96.9%; Weight of tumor (g) mean ± SD (S-180 sarcoma [5]): 0.05 ± 0.04 g; Weight of mice (g) Day 7 [6]: 20.7 g |
| CCCCn1c(=O)c2ccc3sc4ccccc4c4ccc(c1=O)c2c34 [compound 1, N-butyl benzo[k, l]thioxanthene-3,4-dicarboximide] | 185 to 186 | 34.4 | 0 | 0 | 0 | 0 | 87.5 | 56.2 | 46 | 21.4 | 9.8 | 70.1 | 76.9 | 67 | 3.7 | 51.7 | 10.2 | 6.4 | 2.2 | 4.3 | inhibition at 0.01 µM [3]: 6.6%; inhibition at 100 µM [4]: 100%; inhibition at 10 µM [4]: 98.5%; inhibition at 1 µM [4]: 97.7%; inhibition at 0.1 µM [4]: 77.4%; inhibition at 0.01 µM [4]: 1.1% |
| CN(C)CCn1c(=O)c2ccc3sc4ccccc4c4ccc(c1=O)c2c34 [compound 2, N-(N′,N′-dimethylaminoethyl)benzo[k, l]thioxanthene-3,4-dicarboximide] | 212 to 213 | 91.3 | 90.2 | 75.1 | 50.2 | 16.9 | 96.2 | 88 | 37.8 | 28.5 | 0.8 | 95.1 | 90.7 | 72.9 | 24.9 | 99.9 | 78.9 | 22.2 | 7.7 | 10.1 | inhibition at 0.01 µM [3]: 14.2%; inhibition at 100 µM [4]: 100%; inhibition at 10 µM [4]: 100%; inhibition at 1 µM [4]: 97.7%; inhibition at 0.1 µM [4]: 42.3%; inhibition at 0.01 µM [4]: 0% |
| CN(C)CCCn1c(=O)c2ccc3sc4ccccc4c4ccc(c1=O)c2c34 [compound 4, N-(N′, N′-dimethylaminopropyl)benzo[k, l]thioxanthene-3,4-dicarboximide] | 202 to 203 | 80.3 | 92.9 | 73.5 | 33.4 | 17.3 | 94.5 | 91.8 | 39.1 | 0.2 | 13.8 | 94.6 | 95 | 50.7 | 24.3 | 100 | 100 | 23.1 | 11 | 16.2 | inhibition at 0.01 µM [3]: 17.9%; inhibition at 100 µM [4]: 100%; inhibition at 10 µM [4]: 99.7%; inhibition at 1 µM [4]: 93.9%; inhibition at 0.1 µM [4]: 22.3%; inhibition at 0.01 µM [4]: 0% |

Continued, in another order:

| melting point [°C] | Structure (SMILES) | inhibition at 100 µM [1] [%] | inhibition at 10 µM [1] [%] | inhibition at 1 µM [1] [%] | inhibition at 0.1 µM [1] [%] | inhibition at 0.01 µM [1] [%] | inhibition at 100 µM [2] [%] | inhibition at 10 µM [2] [%] | inhibition at 1 µM [2] [%] | inhibition at 0.1 µM [2] [%] | inhibition at 0.01 µM [2] [%] | inhibition at 100 µM [3] [%] | inhibition at 10 µM [3] [%] | inhibition at 1 µM [3] [%] | inhibition at 0.1 µM [3] [%] | inhibition at 100 µM (mice leukemia cell P388) [%] | inhibition at 10 µM (mice leukemia cell P388) [%] | inhibition at 1 µM (mice leukemia cell P388) [%] | inhibition at 0.1 µM (mice leukemia cell P388) [%] | inhibition at 0.01 µM (mice leukemia cell P388) [%] | further results |
| --- | --- | --- | --- | --- | --- | --- | --- | --- | --- | --- | --- | --- | --- | --- | --- | --- | --- | --- | --- | --- | --- |
| 178 to 179 | CN(C)CCN1C(=O)c2cccc3c2c(cc2nnsc23)C1=O [compound 11, 5-(N′,N′-dimethylaminoethyl)-4H, 6H-benzo[de]-1,2,3,-thiadiazol[5,4-g]isoquinoline-4,6-diketone] | 95.7 | 93.7 | 94.5 | 76.6 | 20.2 | 96.5 | 97.1 | 38.9 | 16.7 | 1.1 | 95.7 | 90.9 | 74 | 20.1 | 98.7 | 92.7 | 42.2 | 13.8 | 10.7 | inhibition at 0.01 µM [3]: 24.4%; inhibition at 100 µM [4]: 100%; inhibition at 10 µM [4]: 100%; inhibition at 1 µM [4]: 100%; inhibition at 0.1 µM [4]: 82.8%; inhibition at 0.01 µM [4]: 0% |
| 229 to 230 | CN(C)CCN1C(=O)c2cccc3c2c(cc2nc(-c4cccc([N+](=O)[O-])c4)sc23)C1=O [compound 7, N-(N′,N′-dimethylaminoethyl)-4H, 6H-9-m-nitrophenyl-benzo[de]thiazol[5,4-g]isoquinoline4,6-diketone] | 89.1 | 89 | 72.3 | 71.3 | 52 | 96.4 | 95.1 | 67 | 6.9 | 3.4 | 96.9 | 95.8 | 80.6 | 33.1 | 98.7 | 74.6 | 47.9 | 15.8 | 18 | activity against mice S180 sarcoma (in words) (S-180 sarcoma [7]; listed as C7): not potent; also recorded: active against S180 sarcoma, but weaker than C16; inhibition at 0.01 µM [3]: 17%; inhibition at 100 µM [4]: 95.1%; inhibition at 10 µM [4]: 99.2%; inhibition at 1 µM [4]: 100%; inhibition at 0.1 µM [4]: 13.3%; inhibition at 0.01 µM [4]: 0% |
| 216 to 217 | COc1ccc(-c2nc3cc4c5c(cccc5c3s2)C(=O)N(CCN(C)C)C4=O)cc1 [compound 9, N-(N′,N′-dimethylaminoethyl)-4H, 6H-9-p-methoxy phenyl-benzo[de]thiazol[5,4-g]isoquinoline-4,6-diketone] | 94.9 | 93.9 | 94.5 | 69.4 | 44.5 | – | – | – | – | – | – | – | – | – | 95.1 | 92.3 | 78.2 | 15.2 | 21 | activity against mice S180 sarcoma (in words) (S-180 sarcoma [7]; listed as C9): not potent; also recorded: active against S180 sarcoma, but weaker than C16 |
